# In PubChem BioAssay (NCI):
# Several values for one entry are separate records, joined by “and”; a condition that tells them apart may be missing. Equal entries are not always repeated.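 A five-concentration, 48-hour dose response in 96-well plates underlies each endpoint, interpolated linearly between surrounding concentrations. Abbreviation: GI50, concentration required for 50% inhibition of growth. TGI: total growth inhibition.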
# Experiments:
# Assay in all cases: growth of human tumour cells (NCI), 48 h
# [1] = system: LOX IMVI melanoma
# [2] = system: SF-539 CNS
# [3] = system: HT29 colon
# [4] = system: SF-268 CNS
# [5] = system: SNB-19 CNS
# [6] = system: SNB-75 CNS
# [7] = system: HCT-116 colon
# [8] = system: HL-60(TB) leukemia
# [9] = system: RPMI-8226 leukemia
# [10] = system: CAKI-1 renal
Structure (SMILES),GI50 [1],TGI [1] [µM],GI50 [2] [µM],TGI [2] [µM],GI50 [3] [µM],TGI [3],GI50 [4],TGI [4],GI50 [5] [µM],TGI [5],GI50 [6] [µM],TGI [6] [µM],GI50 [7],TGI [7] [µM],GI50 [8] [µM],TGI [8],GI50 [9],TGI [9],TGI [10] [µM],GI50 [10] [µM]
CC(C)=CCc1cc2c(cc1O)C1=C(C(=O)C3=C(C1=O)S(=O)(=O)CCN3)C(C=C(C)C)O2 (stereo not drawn),0.492 µM,2.06,1.96,4.02,0.634,2.22 µM,0.917 µM,4.74 µM,0.651,2.64 µM,1.39,3.72,0.474 µM,1.77,0.438,1.11 µM,3.38 µM,10.1 µM,–,–
C=C1C(=O)O[C@H]2[C@H]1CC/C(COC(=O)c1cc(OC)c(OC)c(OC)c1)=C\CC[C@@]1(C)O[C@@H]21,1.34 µM,2.73,0.895,2.24,0.441,2.09 µM,1.46 µM,3.42 µM,2.55,10.6 µM,7.92,21.6,0.409 µM,1.48,0.711,2.95 µM,0.422 µM,2.34 µM,–,–
Cc1ccc(C(=O)CC2(O)C(=O)Nc3c(C)cc(Cl)cc32)cc1 (stereo not drawn),–,> 100,–,–,–,> 100 µM,–,> 100 µM,–,> 100 µM,–,> 100,–,–,–,> 100 µM,–,> 100 µM,> 100,–
COC(=O)C(=O)Cc1nc2ccccc2s1,–,> 100,–,> 100,–,> 100 µM,–,> 100 µM,–,> 100 µM,–,> 100,–,> 100,–,> 100 µM,–,–,> 100,–
COC(=O)CCSC(=O)Nc1ccc(N=Nc2ccccc2)cc1,–,> 100,–,> 100,–,> 100 µM,–,> 100 µM,–,> 100 µM,–,> 100,–,> 100,–,–,–,> 100 µM,> 100,–
O=C(c1ccc(O)cc1O)C1C(c2ccc(O)cc2)OC(c2ccc(O)cc2)C1C(=O)c1ccc(O)cc1O (stereo not drawn),–,44.2,–,47.1,–,> 100 µM,–,42.5 µM,–,45.2 µM,–,42.1,–,–,–,39.4 µM,–,–,> 100,–
COc1ccc(N2C(=O)c3c(c4[nH]c5ccccc5c4c4ccc(C(C)(C)C)cc34)C2=O)cc1,–,> 100,–,> 100,–,–,–,74.4 µM,–,> 100 µM,–,35.4,–,> 100,–,–,–,–,> 100,–
COC1=C(N)C(=O)c2nc(-c3nc(C(=O)O)c(C)c(-c4ccc(OC)c(OC)c4O)c3N)ccc2C1=O,0.024 µM and 0.00755 µM,–,–,–,–,0.0337 µM and 0.0342 µM and 0.0663 µM,0.00186 µM and 0.000781 µM and < 0.01 µM,0.00904 µM and 0.0276 µM and < 0.01 µM,–,0.00354 µM and 0.0228 µM and < 0.011 µM,–,–,0.0139 µM and 0.00357 µM,–,–,0.00499 µM and 0.0204 µM,0.00215 µM and 0.00924 µM and < 0.01 µM,0.00647 µM and 0.0298 µM and 0.0225 µM,–,–
Cn1cc(/C=C\[N+](=O)[O-])c2ccccc21,18 µM,36,23.5,49.1,21.4,39.8 µM,> 100 µM,> 100 µM,75,> 100 µM,26.2,75.8,19 µM,43,–,–,16.1 µM,53.4 µM,> 100,66.8
CCOC1=C2N=C(C(CC)c3ccccc3F)N=C2C(=O)c2ccccc21 (stereo not drawn),–,–,–,> 100,–,> 100 µM,–,> 100 µM,–,> 100 µM,–,47.8,–,> 100,–,> 100 µM,–,> 100 µM,> 100,–
Cc1ccc(NC(=O)CCc2nc(=S)[nH][nH]2)cc1,–,–,–,> 100,–,> 100 µM,–,> 100 µM,–,> 100 µM,–,> 100,–,> 100,–,> 100 µM,–,> 100 µM,> 100,–
Cc1ccccc1N=Nc1c(O)ccc2ccccc12,–,> 100,–,–,–,> 100 µM,–,> 100 µM,–,> 100 µM,–,> 100,–,> 100,–,> 100 µM,–,> 100 µM,> 100,–
CCOC(=O)C(C)(NC(=O)c1ccc(NCc2ccc3nc(NC(=O)c4ccccc4)nc(NC(=O)c4ccccc4)c3c2)cc1)C(=O)OCC,–,34.1,–,9.88,–,39.1 µM,–,28.7 µM,–,–,–,7,–,24,–,> 100 µM,–,> 100 µM,21.9,–
CC(=O)C1CCN(c2ccccc2)C1 (stereo not drawn),–,–,–,> 100,–,> 100 µM,–,> 100 µM,–,> 100 µM,–,> 100,–,> 100,–,> 100 µM,–,–,> 100,–
COc1cc(-c2cc(/C=C/C(=O)c3ccc(F)c(F)c3)[nH]n2)cc(OC)c1OC,3.18 µM,12.2,3.76,17.7,2.62,6.47 µM,3.15 µM,> 100 µM,3.64,> 100 µM,–,–,4 µM,13.9,2.48,6.03 µM,1.76 µM,6 µM,> 100,2.98
COC1C2C[C@@H](O)CCC2C(C(=O)OCCl)C[C@H]1O (stereo partly drawn),–,–,–,> 100,–,–,–,> 100 µM,–,> 100 µM,–,> 100,–,> 100,–,> 100 µM,–,> 100 µM,> 100,–
Cc1cc(=O)oc2ccc(OC/C=C3\CCC(=O)O3)cc12,4.94 µM,17.2,7.95,25.5,3.62,15.5 µM,13.2 µM,43.6 µM,13,30.8 µM,1.87,12.3,3.82 µM,15.1,–,–,1.81 µM,11.2 µM,14.8,2.72
COc1cc2oc(-c3cccc(C(=O)Nc4ccc(Cl)cc4)c3)cc(=O)c2c(OC)c1OC,0.413 µM,> 100,2.56,> 100,1.97,6.65 µM,4.66 µM,> 100 µM,6.35,> 100 µM,2.66,> 100,1.9 µM,> 100,–,–,0.49 µM,3.79 µM,7.84,1.79
CCN1CCN(c2nc(C)cc(N(CCCNc3ccnc4cc(Cl)ccc34)Cc3ccc4c(c3)OCO4)n2)CC1,1.62 µM,3.18,1.63,3.07,1.07,2.64 µM,1.62 µM,4.06 µM,2.98,11.3 µM,1.48,3.1,1.1 µM,3.02,2.11,3.96 µM,0.794 µM,3.02 µM,–,–
